Five molecules from paper PMC10104807, “Modulation of tau tubulin kinases (TTBK1 and TTBK2) impacts ciliogenesis” (Scientific Reports, 2023) can be followed below.

Each structure is given as a SMILES string. Read-outs that look alike come from different tables or passages of the source. Some results are limits rather than exact numbers.

The target in one assay is T1, MARK4 (Homo sapiens, UniProt Q96L34).
T1 construct: purchased Eurofins (radiometric) / Eurofins DiscoverX scanMAX / Reaction Biology / SignalChem
T1 sequence (Q96L34 1-752): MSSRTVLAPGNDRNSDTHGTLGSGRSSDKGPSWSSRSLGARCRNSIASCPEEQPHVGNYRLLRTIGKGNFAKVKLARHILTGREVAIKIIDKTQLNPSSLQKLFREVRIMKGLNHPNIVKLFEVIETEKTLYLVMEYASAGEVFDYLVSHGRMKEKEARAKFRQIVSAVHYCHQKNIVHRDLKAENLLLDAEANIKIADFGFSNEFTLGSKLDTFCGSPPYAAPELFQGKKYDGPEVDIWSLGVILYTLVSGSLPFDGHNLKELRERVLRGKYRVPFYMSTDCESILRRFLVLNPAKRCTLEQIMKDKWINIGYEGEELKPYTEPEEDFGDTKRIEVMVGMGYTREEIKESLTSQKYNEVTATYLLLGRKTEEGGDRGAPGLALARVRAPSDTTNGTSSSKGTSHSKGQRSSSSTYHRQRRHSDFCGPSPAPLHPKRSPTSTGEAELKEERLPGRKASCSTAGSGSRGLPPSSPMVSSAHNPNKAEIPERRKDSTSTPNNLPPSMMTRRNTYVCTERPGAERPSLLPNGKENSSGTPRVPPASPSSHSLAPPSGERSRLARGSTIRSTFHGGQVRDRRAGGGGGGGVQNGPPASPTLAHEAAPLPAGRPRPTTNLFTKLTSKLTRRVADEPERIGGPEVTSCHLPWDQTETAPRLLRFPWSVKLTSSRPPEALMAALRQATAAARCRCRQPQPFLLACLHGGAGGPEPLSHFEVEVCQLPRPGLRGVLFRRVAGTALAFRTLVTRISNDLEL
As to the kind of experiment: Eurofins enzymatic radiometric kinase assay. Format: biochemical. Particulars: ATP at Km, duplicate. As for the experimental part:
(§1) The column labeled “# < 10 PoC in enzyme panel” in Table 1 reports the number of kinases in this 17-member panel inhibited > 90% by each analog.
(§2) Details about the substrate used, protein constructs, controls, and assay protocol for these kinase assays are available at the Eurofins website: https://www.eurofinsdiscoveryservices.com. Reaction Biology Corp. (RBC) radiometric HotSpot kinase assays were carried out at the Km value for ATP in dose–response (10-pt curve) format for MYLK4, RIPK5, and YSK4 in Table S2. Details about the substrate used, protein constructs, controls, and assay protocol for these kinase assays are available at the RBC website: https://www.reactionbiology.com/list-kinase-targets-us-facility. SignalChem developed an ADP-Glo assay to test for enzymatic inhibition of PIKfyve in dose–response (10-pt curve) format in duplicate.

The target in the next assay is T2, TSSK3 (Homo sapiens, UniProt Q96PN8).
T2 construct: purchased Eurofins
T2 sequence (Q96PN8 1-268): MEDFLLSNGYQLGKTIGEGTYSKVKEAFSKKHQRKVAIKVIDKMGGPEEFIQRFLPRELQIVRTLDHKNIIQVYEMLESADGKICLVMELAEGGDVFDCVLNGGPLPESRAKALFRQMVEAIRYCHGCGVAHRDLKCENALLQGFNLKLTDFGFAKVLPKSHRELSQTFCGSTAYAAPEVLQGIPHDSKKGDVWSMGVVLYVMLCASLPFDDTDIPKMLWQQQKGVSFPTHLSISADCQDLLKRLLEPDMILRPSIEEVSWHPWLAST
As to the kind of experiment: Eurofins enzymatic radiometric kinase assay. Particulars: ATP at Km, duplicate. It is filed as biochemical. How it is done:
as §1, §2

For another assay, the target named is T3, MARK3 (Homo sapiens, UniProt P27448).
T3 construct: purchased Eurofins (radiometric) / Eurofins DiscoverX scanMAX / Reaction Biology / SignalChem
T3 sequence (P27448 whole entry): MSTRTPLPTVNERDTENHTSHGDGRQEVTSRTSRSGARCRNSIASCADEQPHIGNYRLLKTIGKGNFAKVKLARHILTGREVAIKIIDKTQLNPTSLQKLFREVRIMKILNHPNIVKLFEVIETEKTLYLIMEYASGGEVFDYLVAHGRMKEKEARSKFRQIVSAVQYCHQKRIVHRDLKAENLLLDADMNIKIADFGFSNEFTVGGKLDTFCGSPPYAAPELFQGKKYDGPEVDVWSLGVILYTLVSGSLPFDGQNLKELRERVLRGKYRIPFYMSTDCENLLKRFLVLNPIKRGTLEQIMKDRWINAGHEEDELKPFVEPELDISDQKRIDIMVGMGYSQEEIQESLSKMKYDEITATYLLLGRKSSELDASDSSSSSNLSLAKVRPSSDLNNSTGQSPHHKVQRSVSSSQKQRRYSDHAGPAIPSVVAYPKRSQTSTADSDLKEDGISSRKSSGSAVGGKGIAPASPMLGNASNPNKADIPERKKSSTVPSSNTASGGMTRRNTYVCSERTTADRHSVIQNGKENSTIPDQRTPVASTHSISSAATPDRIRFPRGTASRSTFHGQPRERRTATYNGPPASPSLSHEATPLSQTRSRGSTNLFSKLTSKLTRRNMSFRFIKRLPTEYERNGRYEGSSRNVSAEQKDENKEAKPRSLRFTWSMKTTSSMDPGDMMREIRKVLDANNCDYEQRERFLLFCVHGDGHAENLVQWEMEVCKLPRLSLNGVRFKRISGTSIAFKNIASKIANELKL
As to the kind of experiment: Eurofins enzymatic radiometric kinase assay. Particulars: ATP at Km, duplicate. It is filed as biochemical. As for the experimental part: as §1, §2

For another assay, the target named is T4, MAP4K5 (Homo sapiens, UniProt Q9Y4K4).
T4 construct: purchased Eurofins
T4 sequence (Q9Y4K4 whole entry): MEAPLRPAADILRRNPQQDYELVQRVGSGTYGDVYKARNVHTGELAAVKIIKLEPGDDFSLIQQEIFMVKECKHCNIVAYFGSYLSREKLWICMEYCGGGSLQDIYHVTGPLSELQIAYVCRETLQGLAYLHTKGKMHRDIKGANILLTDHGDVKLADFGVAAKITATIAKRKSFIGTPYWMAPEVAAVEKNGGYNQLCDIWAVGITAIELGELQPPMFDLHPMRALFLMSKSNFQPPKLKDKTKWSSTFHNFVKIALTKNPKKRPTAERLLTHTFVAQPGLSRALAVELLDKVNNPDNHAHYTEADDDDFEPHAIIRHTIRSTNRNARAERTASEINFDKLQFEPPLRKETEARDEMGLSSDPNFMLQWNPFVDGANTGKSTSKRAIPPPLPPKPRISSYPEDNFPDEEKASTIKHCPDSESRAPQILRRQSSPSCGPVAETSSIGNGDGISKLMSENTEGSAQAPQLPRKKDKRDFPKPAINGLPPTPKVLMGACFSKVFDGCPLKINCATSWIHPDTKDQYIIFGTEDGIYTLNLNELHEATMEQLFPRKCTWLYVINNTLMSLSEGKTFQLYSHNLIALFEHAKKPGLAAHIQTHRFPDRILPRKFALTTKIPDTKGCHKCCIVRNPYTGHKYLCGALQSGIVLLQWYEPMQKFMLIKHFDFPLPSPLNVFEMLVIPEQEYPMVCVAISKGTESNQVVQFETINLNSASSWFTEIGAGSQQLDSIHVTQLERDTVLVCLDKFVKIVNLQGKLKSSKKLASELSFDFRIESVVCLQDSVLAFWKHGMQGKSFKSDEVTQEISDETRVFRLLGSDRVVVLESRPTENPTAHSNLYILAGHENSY
As to the kind of experiment: Eurofins enzymatic radiometric kinase assay. It is filed as biochemical. Particulars: ATP at Km, duplicate. As for the experimental part: as §1, §2

The target in another assay is T5, HIPK1 (Homo sapiens, UniProt Q86Z02).
T5 construct: purchased Eurofins (radiometric) / Eurofins DiscoverX scanMAX / Reaction Biology / SignalChem
As to the kind of experiment: Eurofins enzymatic radiometric kinase assay. Format: biochemical. Particulars: ATP at Km, duplicate. As for the experimental part:
as §1, §2

The target of a further assay is T6, PAK5 (Homo sapiens, UniProt Q9P286).
T6 construct: purchased Eurofins (radiometric) / Eurofins DiscoverX scanMAX / Reaction Biology / SignalChem
T6 sequence (Q9P286 whole entry): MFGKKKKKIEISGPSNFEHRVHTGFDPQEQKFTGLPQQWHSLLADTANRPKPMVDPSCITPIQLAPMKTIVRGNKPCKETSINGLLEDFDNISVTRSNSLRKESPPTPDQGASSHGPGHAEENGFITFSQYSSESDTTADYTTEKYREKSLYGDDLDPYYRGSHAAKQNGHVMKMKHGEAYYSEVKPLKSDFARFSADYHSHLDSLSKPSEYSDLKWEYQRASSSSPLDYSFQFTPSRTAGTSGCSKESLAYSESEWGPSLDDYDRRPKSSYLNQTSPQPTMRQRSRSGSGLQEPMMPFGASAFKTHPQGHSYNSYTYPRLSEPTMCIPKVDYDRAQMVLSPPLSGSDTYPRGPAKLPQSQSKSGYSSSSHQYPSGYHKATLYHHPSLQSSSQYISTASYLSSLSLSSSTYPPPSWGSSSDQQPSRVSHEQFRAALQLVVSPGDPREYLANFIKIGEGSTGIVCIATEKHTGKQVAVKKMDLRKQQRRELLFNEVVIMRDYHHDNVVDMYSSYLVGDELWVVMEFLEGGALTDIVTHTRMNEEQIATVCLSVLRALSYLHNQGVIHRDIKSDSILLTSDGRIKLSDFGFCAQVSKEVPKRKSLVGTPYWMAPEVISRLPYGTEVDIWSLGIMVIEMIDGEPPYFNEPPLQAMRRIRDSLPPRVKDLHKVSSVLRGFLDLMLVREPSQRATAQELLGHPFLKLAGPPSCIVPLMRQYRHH
As to the kind of experiment: Eurofins enzymatic radiometric kinase assay. Format: biochemical. Particulars: ATP at Km, duplicate. As for the experimental part: as §1, §2

The next assay addresses T7, PAK6 (Homo sapiens, UniProt Q9NQU5).
T7 construct: purchased Eurofins (radiometric) / Eurofins DiscoverX scanMAX / Reaction Biology / SignalChem
As to the kind of experiment: Eurofins enzymatic radiometric kinase assay. Particulars: ATP at Km, duplicate. It is filed as biochemical. As for the experimental part:
as §1, §2

A further assay concerns the target T8, PAK3 (Homo sapiens, UniProt O75914).
T8 construct: purchased Eurofins (radiometric) / Eurofins DiscoverX scanMAX / Reaction Biology / SignalChem
As to the kind of experiment: Eurofins enzymatic radiometric kinase assay. It is filed as biochemical. Particulars: ATP at Km, duplicate. As for the experimental part: as §1, §2

Another assay addresses T9, TSSK4 (Homo sapiens, UniProt Q6SA08).
T9 construct: purchased Eurofins (radiometric) / Eurofins DiscoverX scanMAX / Reaction Biology / SignalChem
T9 sequence (Q6SA08 1-328): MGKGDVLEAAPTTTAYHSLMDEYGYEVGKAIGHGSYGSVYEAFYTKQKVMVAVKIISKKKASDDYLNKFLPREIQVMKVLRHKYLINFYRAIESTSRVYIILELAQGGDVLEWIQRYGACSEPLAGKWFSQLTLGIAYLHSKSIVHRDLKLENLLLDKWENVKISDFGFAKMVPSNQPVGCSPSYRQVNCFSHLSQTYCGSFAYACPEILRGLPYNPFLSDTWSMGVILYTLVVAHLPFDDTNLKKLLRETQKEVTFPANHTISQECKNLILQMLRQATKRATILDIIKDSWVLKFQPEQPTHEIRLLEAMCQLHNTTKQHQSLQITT
As to the kind of experiment: Eurofins enzymatic radiometric kinase assay. It is filed as biochemical. Particulars: ATP at Km, duplicate. How it is done: as §1, §2

In another assay the target is T10, NLuc-TTBK2 (Homo sapiens, UniProt Q6IQ55).
T10 construct: host or cells: HEK293
T10 sequence (Q6IQ55 whole entry): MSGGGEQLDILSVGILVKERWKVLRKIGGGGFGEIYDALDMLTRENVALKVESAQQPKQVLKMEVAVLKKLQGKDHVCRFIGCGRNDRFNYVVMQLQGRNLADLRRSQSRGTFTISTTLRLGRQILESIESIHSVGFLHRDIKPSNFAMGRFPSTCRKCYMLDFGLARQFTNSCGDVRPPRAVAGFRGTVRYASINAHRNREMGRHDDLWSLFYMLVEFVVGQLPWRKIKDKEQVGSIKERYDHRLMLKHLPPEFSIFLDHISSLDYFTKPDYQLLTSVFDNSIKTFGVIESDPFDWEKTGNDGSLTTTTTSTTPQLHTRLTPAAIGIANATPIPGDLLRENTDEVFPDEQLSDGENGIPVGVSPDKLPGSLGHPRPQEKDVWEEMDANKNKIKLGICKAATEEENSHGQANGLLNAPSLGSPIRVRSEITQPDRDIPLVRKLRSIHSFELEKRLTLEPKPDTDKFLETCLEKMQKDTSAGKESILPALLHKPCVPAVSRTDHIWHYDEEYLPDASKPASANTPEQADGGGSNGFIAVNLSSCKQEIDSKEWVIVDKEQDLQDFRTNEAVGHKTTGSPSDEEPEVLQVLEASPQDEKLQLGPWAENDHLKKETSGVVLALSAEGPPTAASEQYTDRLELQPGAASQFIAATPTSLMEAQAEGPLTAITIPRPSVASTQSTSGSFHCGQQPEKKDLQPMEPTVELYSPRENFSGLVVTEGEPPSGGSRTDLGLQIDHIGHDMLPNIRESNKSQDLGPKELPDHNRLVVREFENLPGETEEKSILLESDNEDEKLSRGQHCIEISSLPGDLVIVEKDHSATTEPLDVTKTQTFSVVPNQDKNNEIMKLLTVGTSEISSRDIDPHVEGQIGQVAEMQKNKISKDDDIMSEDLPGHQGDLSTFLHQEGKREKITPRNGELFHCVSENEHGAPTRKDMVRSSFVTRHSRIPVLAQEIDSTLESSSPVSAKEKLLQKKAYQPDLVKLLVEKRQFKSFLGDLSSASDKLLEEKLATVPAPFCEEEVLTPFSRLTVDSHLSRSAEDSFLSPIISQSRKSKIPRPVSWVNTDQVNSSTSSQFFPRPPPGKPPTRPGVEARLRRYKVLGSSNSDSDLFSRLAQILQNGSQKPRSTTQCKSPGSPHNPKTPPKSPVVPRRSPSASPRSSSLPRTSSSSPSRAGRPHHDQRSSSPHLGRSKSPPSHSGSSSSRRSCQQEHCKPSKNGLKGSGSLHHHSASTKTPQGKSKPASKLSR
As to the kind of experiment: TTBK2 NanoBRET cellular target engagement assay in HEK293 cells. It is filed as cell-based. How it is done: HEK293 cells were transfected with constructs of TTBK1 or TTBK2 tagged with NLuc on the N- or C-terminus as previously described[43] Constructs for NanoBRET measurements of TTBK1 (NLuc-TTBK1 and TTBK1-NLuc) and TTBK2 (NLuc-TTBK2 and TTBK2-NLuc) were kindly provided by Promega. NLuc orientations used in the respective assays are indicated. Cells were plated in 96-well tissue culture treated plates (Corning 3917) at a cell density of 2 × 10^5 cells/mL, with a total volume of 100 μL per well in DMEM. […] NanoBRET plates were read after addition of 50 μL of a stock solution (3X) containing NanoBRET NanoGlo substrate (Promega N2161), extracellular NanoLuc inhibitor (Promega N2161) and Opti-MEM. For a 96-well plate the 3X stock solution was prepared with 30 μL of NanoBRET NanoGlo substrate, 10 μL of extracellular NanoLuc inhibitor, and 4960 μL of Opti-MEM without phenol red. […] HEK293 cells were transfected with NLuc-TTBK1 or NLuc-TTBK2. […] One biological replicate was plotted in GraphPad Prism with log[inhibitor] vs. response (three parameters) and included in Fig. 3C. NanoBRET assays were carried out in dose-response format as described previously. NLuc orientations used in the respective assays are as follows: NLuc-TTBK1, NLuc-TTBK2, and PIP4K2C-NLuc (for PI5[…]γ). […] Data are reported as IC50 ± standard error mean (SEM). For PI5[…]γ, 9 was tested in 12-point dose-response format with a top concentration of 10 μM (data in Table S2). One biological replicate was plotted in GraphPad Prism with log[inhibitor] vs. response (three parameters).
Background: In BRET a luciferase serves as donor, and the signal depends on an acceptor being close.

[1] abbreviates: intact HEK293 cells, 2 μM tracer 29, read-out: TTBK2 intact cell NB IC50.
The mark [2] stands for this setting: permeabilized HEK293 cells (digitonin), 2 μM tracer 29, read-out: TTBK2 permeabilized cell NB IC50.

T7 sequence (Q9NQU5 whole entry): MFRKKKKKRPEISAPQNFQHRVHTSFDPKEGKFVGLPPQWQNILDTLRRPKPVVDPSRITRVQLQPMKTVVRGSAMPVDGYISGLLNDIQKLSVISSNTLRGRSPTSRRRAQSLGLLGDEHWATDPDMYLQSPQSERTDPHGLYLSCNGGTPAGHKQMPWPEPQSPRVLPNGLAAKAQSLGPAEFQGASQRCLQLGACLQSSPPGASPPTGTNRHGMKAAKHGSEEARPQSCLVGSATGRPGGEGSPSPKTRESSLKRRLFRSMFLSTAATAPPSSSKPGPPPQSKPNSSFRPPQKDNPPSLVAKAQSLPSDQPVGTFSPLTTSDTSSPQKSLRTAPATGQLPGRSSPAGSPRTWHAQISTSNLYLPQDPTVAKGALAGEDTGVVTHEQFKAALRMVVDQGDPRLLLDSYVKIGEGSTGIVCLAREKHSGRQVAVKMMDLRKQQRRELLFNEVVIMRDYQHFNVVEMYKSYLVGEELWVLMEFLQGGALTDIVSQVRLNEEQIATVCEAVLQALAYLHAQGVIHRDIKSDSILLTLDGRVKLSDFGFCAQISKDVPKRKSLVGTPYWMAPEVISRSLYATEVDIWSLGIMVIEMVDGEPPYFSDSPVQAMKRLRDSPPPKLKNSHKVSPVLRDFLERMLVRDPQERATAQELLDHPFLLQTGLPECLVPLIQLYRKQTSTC
T8 sequence (O75914 whole entry): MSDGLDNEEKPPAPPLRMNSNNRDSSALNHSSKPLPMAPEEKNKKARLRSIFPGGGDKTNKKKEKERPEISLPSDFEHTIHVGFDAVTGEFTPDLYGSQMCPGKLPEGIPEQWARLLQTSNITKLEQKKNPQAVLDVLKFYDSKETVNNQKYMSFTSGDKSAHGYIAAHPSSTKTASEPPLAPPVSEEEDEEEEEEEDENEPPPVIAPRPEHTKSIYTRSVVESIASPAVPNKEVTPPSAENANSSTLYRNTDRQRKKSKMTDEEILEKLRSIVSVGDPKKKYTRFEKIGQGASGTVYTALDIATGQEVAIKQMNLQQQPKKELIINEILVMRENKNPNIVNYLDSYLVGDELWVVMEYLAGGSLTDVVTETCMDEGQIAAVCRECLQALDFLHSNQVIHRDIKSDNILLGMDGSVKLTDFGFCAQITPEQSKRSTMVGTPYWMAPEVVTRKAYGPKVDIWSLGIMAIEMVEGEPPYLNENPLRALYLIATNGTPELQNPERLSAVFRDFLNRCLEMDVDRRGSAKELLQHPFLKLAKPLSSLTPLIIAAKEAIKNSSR

As for `CC(C)(O)C#Cc1ccc2[nH]c3c(c2c1)-c1nc(N)ncc1CCC3` [AMG28, reference compound], the “MARK4 PoC at 1 μM” value at MARK4 was 18 PoC. In addition, the “TSSK3 PoC at 1 μM” value at TSSK3 was determined as 1 PoC. For the same molecule, at MARK3, the “MARK3 PoC at 1 μM” value was found to be 12 PoC. Also, the “MAP4K5 PoC at 1 μM” value at MAP4K5 turned out to be 1 PoC. The “HIPK1 PoC at 1 μM” value at HIPK1 is 67 PoC. The “PAK5 PoC at 1 μM” value on PAK5 was determined as 3 PoC. Further, the “PAK6 PoC at 1 μM” value at PAK6 worked out at 6 PoC. The “PAK3 PoC at 1 μM” value at PAK3 was determined as 86 PoC. Besides, the “TSSK4 PoC at 1 μM” value on TSSK4 worked out at 70 PoC.
On to `CC(C)(O)C#Cc1ccc2[nH]c3c(c2c1)-c1nc(N)ncc1CC3` [Compound 1], for which the “MARK4 PoC at 1 μM” value on MARK4 was 53 PoC. For the same molecule, on TSSK3, the “TSSK3 PoC at 1 μM” value came to 11 PoC. On MARK3, the “MARK3 PoC at 1 μM” value is 56 PoC. In addition, the “MAP4K5 PoC at 1 μM” value at MAP4K5 turned out to be 3 PoC. The “HIPK1 PoC at 1 μM” value at HIPK1 turned out to be 76 PoC. Also, the “PAK5 PoC at 1 μM” value at PAK5 is reported as 48 PoC. Moreover, on PAK6, the “PAK6 PoC at 1 μM” value is given as 51 PoC. Moreover, the “PAK3 PoC at 1 μM” value on PAK3 came out at 86 PoC. For the same molecule, the “TSSK4 PoC at 1 μM” value at TSSK4 came out at 55 PoC. Moreover, the IC50 at NLuc-TTBK2 (setting [1]) amounted to 16 µM; at NLuc-TTBK2 (setting [2]) it was 3.6 µM.
As for `CC(C)(O)C#Cc1ccc2[nH]c3c(c2c1)-c1nc(N)ncc1CCCC3` [Compound 2], the “MARK4 PoC at 1 μM” value at MARK4 is recorded as 86 PoC. Also, the “TSSK3 PoC at 1 μM” value at TSSK3 is 120 PoC. The “MARK3 PoC at 1 μM” value at MARK3 amounted to 76 PoC. Also, the “MAP4K5 PoC at 1 μM” value at MAP4K5 came out at 9 PoC. For the same molecule, the “HIPK1 PoC at 1 μM” value at HIPK1 stood at 96 PoC. For the same molecule, the “PAK5 PoC at 1 μM” value on PAK5 came out at 87 PoC. Further, the “PAK6 PoC at 1 μM” value on PAK6 was determined as 77 PoC. The “PAK3 PoC at 1 μM” value at PAK3 stood at 100 PoC. Moreover, the “TSSK4 PoC at 1 μM” value at TSSK4 came to 77 PoC. Besides, the values for the IC50 at NLuc-TTBK2 (setting [1]) and on NLuc-TTBK2 (setting [2]) were over 30 µM and 17 µM, respectively.
As for `CC(C)(O)C#Cc1ccc2[nH]cc(-c3ccnc(N)n3)c2c1` [Compound 3], the “MARK4 PoC at 1 μM” value on MARK4 is given as 43 PoC. Besides, the “TSSK3 PoC at 1 μM” value on TSSK3 came out at 5 PoC. Also, at MARK3, the “MARK3 PoC at 1 μM” value was 46 PoC. Further, the “MAP4K5 PoC at 1 μM” value at MAP4K5 is listed as 1 PoC. For the same molecule, the “HIPK1 PoC at 1 μM” value on HIPK1 was 87 PoC. Also, the “PAK5 PoC at 1 μM” value at PAK5 was 31 PoC. Also, at PAK6, the “PAK6 PoC at 1 μM” value is given as 40 PoC. On PAK3, the “PAK3 PoC at 1 μM” value came out at 104 PoC. Further, at TSSK4, the “TSSK4 PoC at 1 μM” value amounted to 78 PoC. Besides, the IC50 on NLuc-TTBK2 (setting [1]) came out at 11.7 ± 3.7 µM; at NLuc-TTBK2 (setting [2]) it was 2.52 ± 0.62 µM; at NLuc-TTBK2 (tracer titration experiment, 2 μM tracer 29, n = 1, read-out: NL-TTBK2 IC50, tracer titration), 6.9 µM.
For `COC(C)(C)C#Cc1ccc2[nH]c3c(c2c1)-c1nc(N)ncc1CCC3` [Compound 11], the “MARK4 PoC at 1 μM” value on MARK4 was found to be 103 PoC. Also, on TSSK3, the “TSSK3 PoC at 1 μM” value is 75 PoC. In addition, on MARK3, the “MARK3 PoC at 1 μM” value came out at 104 PoC. Moreover, at MAP4K5, the “MAP4K5 PoC at 1 μM” value is given as 9 PoC. The “HIPK1 PoC at 1 μM” value at HIPK1 is listed as 96 PoC. The “PAK5 PoC at 1 μM” value on PAK5 came to 88 PoC. In addition, on PAK6, the “PAK6 PoC at 1 μM” value came to 92 PoC. The “PAK3 PoC at 1 μM” value on PAK3 is listed as 100 PoC. Further, on TSSK4, the “TSSK4 PoC at 1 μM” value is on record as 101 PoC. Further, the IC50 at NLuc-TTBK2 (setting [1]) and at NLuc-TTBK2 (setting [2]) was over 30 µM in each case.
